Values after ≈ are worked out from the molar mass of the structure shown.

These results are taken from ChEMBL document CHEMBL4825686, “HTS-based discovery and optimization of novel positive allosteric modulators of the α7 nicotinic acetylcholine receptor” (Eur J Med Chem, 2021).

Data set [1] can be described thus: Kinetic solubility of compound. The format is physicochemical. The settings on record: read-out: Kinetic_solubility.
The target in data set [2] is Neuronal acetylcholine receptor subunit alpha-7 (Homo sapiens, UniProt P36544). The data set can be described thus: Positive allosteric modulator activity at human alpha7 nAChR expressed in Flp-In-HEK293 cells co-expressing RIC-3 assessed as potentiation of PNU282987-induced calcium influx measured after 10 mins by FLIPR assay. The format is cell-based, Flp-In-293.
Data set [3] can be described thus: Metabolic stability in human liver microsomes assessed as intrinsic clearance at 1 uM measured per mg protein upto 40 mins. The format is ADME, Microsome. The following applies: read-out: CLH. Background: Liver microsomes are a subcellular fraction often used to study metabolism.
Data set [4] can be described thus: Metabolic stability in Wistar rat liver microsomes assessed as intrinsic clearance at 1 uM measured per mg protein upto 40 mins. The format is ADME, Microsome. The settings on record: read-out: CLH.
The nature of data set [5]: Metabolic stability in NMRI mouse liver microsomes assessed as intrinsic clearance at 1 uM measured per mg protein upto 40 mins. The format is ADME, Microsome. The settings on record: read-out: CLH.
A short description of data set [6]: Mutagenicity in Salmonella typhimurium TA100 in presence of rat liver S9 fraction by AMES test. The format is toxicity, subcellular. The following applies: salmonella enterica subsp. enterica serovar typhimurium.
Data set [7] in a line: Mutagenicity in Salmonella typhimurium TA1535 in presence of rat liver S9 fraction by AMES test. The format is toxicity, subcellular. The settings on record: salmonella enterica subsp. enterica serovar typhimurium.
Data set [8] in a line: Mutagenicity in Salmonella typhimurium TA98 in presence of rat liver S9 fraction by AMES test. The format is toxicity, subcellular. The following applies: salmonella enterica subsp. enterica serovar typhimurium.
Data set [9] in a line: Mutagenicity in Salmonella typhimurium TA98 in absence of rat liver S9 fraction by AMES test. The settings on record: salmonella enterica subsp. enterica serovar typhimurium. The format is toxicity.
Data set [10] is described as follows: Mutagenicity in Salmonella typhimurium TA100 in absence of rat liver S9 fraction by AMES test. The format is toxicity. The following applies: salmonella enterica subsp. enterica serovar typhimurium.
Data set [11] in a line: Mutagenicity in Salmonella typhimurium TA1537 in presence of rat liver S9 fraction by AMES test. The format is toxicity, subcellular. The settings on record: salmonella enterica subsp. enterica serovar typhimurium.
A short description of data set [12]: Mutagenicity in Salmonella typhimurium TA1537 in absence of rat liver S9 fraction by AMES test. The format is toxicity. The settings on record: salmonella enterica subsp. enterica serovar typhimurium.
The nature of data set [13]: Mutagenicity in Escherichia coli WP2 uvrA in presence of rat liver S9 fraction by AMES test. The format is toxicity, subcellular.
A short description of data set [14]: Mutagenicity in Escherichia coli WP2 uvrA in absence of rat liver S9 fraction by AMES test. The format is toxicity.
Data set [15] can be described thus: Mutagenicity in Salmonella typhimurium TA1535 in absence of rat liver S9 fraction by AMES test. The format is toxicity. The settings on record: salmonella enterica subsp. enterica serovar typhimurium.

Sequence of Neuronal acetylcholine receptor subunit alpha-7 (P36544 whole entry): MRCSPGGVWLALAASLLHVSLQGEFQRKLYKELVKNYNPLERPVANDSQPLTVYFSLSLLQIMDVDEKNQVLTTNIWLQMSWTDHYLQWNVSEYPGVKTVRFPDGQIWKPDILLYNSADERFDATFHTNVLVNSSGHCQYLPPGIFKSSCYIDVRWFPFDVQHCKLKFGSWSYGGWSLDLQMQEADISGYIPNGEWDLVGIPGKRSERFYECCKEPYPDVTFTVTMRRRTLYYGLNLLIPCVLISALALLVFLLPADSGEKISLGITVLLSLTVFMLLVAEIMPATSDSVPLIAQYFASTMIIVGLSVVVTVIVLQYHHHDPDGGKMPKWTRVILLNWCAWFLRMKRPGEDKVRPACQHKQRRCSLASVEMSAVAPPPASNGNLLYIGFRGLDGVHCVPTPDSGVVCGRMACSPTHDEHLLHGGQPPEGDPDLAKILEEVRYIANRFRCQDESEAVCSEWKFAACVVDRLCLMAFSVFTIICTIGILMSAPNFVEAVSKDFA

For the compound `Cc1ccc(Oc2ccc(C(=O)C(=O)Nc3ccc4c(ccn4C)c3)cc2)cc1`, the solubility kinetic in data set [1] stood at 2 µM (≈ 0.769 µg/mL). Further, the EC50 in data set [2] (read-out: EC50) worked out at 60 nM. The microsomal CLint at 1 µM turned out to be 34 µL/min/mg in [3], 48 µL/min/mg in data set [4] and 46 µL/min/mg in data set [5].

In the case of `Cc1ccc(CN2CCCC(C(=O)NCc3ccc4c(ccn4C)c3)C2)cc1` (stereo unspecified), the EC50 entry in data set [2] (flp-in-293) is listed as “Not Active”.

For the compound `Cc1ccc(CN2CCC(NC(=O)Nc3ccc4c(ccn4C)c3)CC2)cc1`, the EC50 entry in data set [2] (flp-in-293) is given as “Not Active”.

As to `Cn1ccc2cc(CNC(=O)N3CC(COc4ccc(Cl)cc4)C3)ccc21`, the EC50 in [2] (read-out: EC50) came to 55 nM.

`Cc1ccc(CN2CCN(C(=O)C(=O)Nc3ccc4c(F)cn(C)c4c3)CC2)cc1`: the Activity entry in data set [6], in data set [7], in [8], in data set [9], in data set [10] and in [11] was “Toxic” in each case. Further, the Activity result in [12], in data set [13], in data set [14] and in data set [15] was “Toxic” throughout. Also, the solubility kinetic in data set [1] amounted to 12.5 µM (≈ 5.11 µg/mL). Further, the EC50 in data set [2] (read-out: EC50) amounted to 1400 nM.

In the case of `Cc1ccc(OC2CCN(C(=O)C(=O)Nc3ccc4[nH]ccc4c3)CC2)cc1`, the EC50 in data set [2] (read-out: EC50) came to 260 nM.

Regarding `Cc1ccc(OC2CCN(C(=O)NCc3ccc4c(ccn4C)c3)C2)cc1` (stereo unspecified), the EC50 in data set [2] (read-out: EC50) was 170 nM.

With `Cc1ccc(OCC2CN(C(=O)NCc3ccc4c(ccn4C)c3)C2)cc1`, the EC50 in data set [2] (read-out: EC50) worked out at 40 nM.

Consider `Cc1ccc(CN2CCN(C(=O)NCc3ccc4c(ccn4C)c3)CC2)cc1`, for which the solubility kinetic in data set [1] was found to be 18.9 µM (≈ 7.12 µg/mL). The EC50 in [2] (read-out: EC50) is 490 nM. In data set [3], the microsomal CLint at 1 µM worked out at 24 µL/min/mg.

Consider `Cc1ccc(CN2CCN(C(=O)C(=O)NCc3ccc4c(ccn4C)c3)CC2)cc1`, for which the EC50 entry in [2] (flp-in-293) is “Not Active”.

As for `Cc1ccc(CN2CCN(C(=O)C(=O)Nc3ccn4cccc4c3)CC2)cc1`, in data set [1], the solubility kinetic was determined as 5.6 µM (≈ 2.11 µg/mL). Further, the EC50 in [2] (read-out: EC50) was 3300 nM.

Turning to `Cc1ccc(CN2C[C@@H](C)N(C(=O)C(=O)Nc3ccc4[nH]ccc4c3)C[C@@H]2C)cc1`, the solubility kinetic in data set [1] is 14.9 µM (≈ 6.03 µg/mL). Further, the EC50 entry in data set [2] (flp-in-293) was “Not Active”. Further, the microsomal CLint at 1 µM in data set [3] amounted to 2 µL/min/mg.

Turning to `Cc1ccc(CN2CCN(C(=O)c3nnc(-c4cccc5c4ccn5C)o3)CC2)cc1`, the EC50 in data set [2] (read-out: EC50) is 660 nM.

On to `Cc1ccc(OCC2CN(C(=O)C(=O)Nc3ccc4c(ccn4C)c3)C2)cc1`, for which the EC50 in data set [2] (read-out: EC50) came out at 3000 nM.

Regarding `Cn1ccc2cc(NC(=O)C(=O)c3cnc(Oc4ccc(Cl)cc4)s3)ccc21`, the solubility kinetic in [1] came to 0.1 µM (≈ 0.0412 µg/mL). Besides, the concentration for a half-maximal effect (EC50) result in [2] (flp-in-293) is “Not Active”.

For the compound `Cc1ccc(Oc2cnc(C(=O)C(=O)Nc3ccc4c(ccn4C)c3)cn2)cc1`, the solubility kinetic in [1] stood at 10 µM (≈ 3.86 µg/mL). The EC50 in data set [2] (read-out: EC50) amounted to 650 nM. In addition, the microsomal CLint at 1 µM amounted to 90 µL/min/mg in data set [3], 127 µL/min/mg in data set [4] and 156 µL/min/mg in data set [5].

With `Cn1ccc2cc(CNC(=O)N3CC(COc4ccc(C(F)(F)F)cc4)C3)ccc21`, the EC50 in [2] (read-out: EC50) was determined as 80 nM.

With `Cc1ccc(CN2CCC(c3nnc(C(=O)Nc4ccc5c(ccn5C)c4)o3)CC2)cc1`, the EC50 entry in [2] (flp-in-293) is recorded as “Not Active”.

On to `Cn1nc(-c2ccc3c(ccn3C)c2)cc1C(=O)N1CCN(Cc2ccc(Cl)cc2)CC1`, for which the EC50 in [2] (read-out: EC50) stood at 2500 nM.

Regarding `Cc1ccc(OC2CC3CCC(C2)N3C(=O)C(=O)Nc2ccc3[nH]ccc3c2)cc1` (stereo unspecified), the solubility kinetic in data set [1] was found to be 8.1 µM (≈ 3.27 µg/mL). Besides, in data set [2] (flp-in-293), the EC50 entry is recorded as “Not Active”. Besides, the microsomal CLint at 1 µM in [3] stood at 12 µL/min/mg; in data set [4], 61 µL/min/mg; in data set [5], 40 µL/min/mg.

`Cc1ccc(CN2CCN(C(=O)C(=O)Nc3ccc4c(c3)CCN4C)CC2)cc1`: the solubility kinetic in [1] amounted to 95 µM (≈ 37.3 µg/mL). The EC50 in data set [2] (read-out: EC50) is 820 nM. The values for the microsomal CLint at 1 µM in [3], in [4] and in [5] were 71 µL/min/mg, 23 µL/min/mg and 18 µL/min/mg, respectively.

Consider `Cc1ccc(CN2CCC(C(=O)C(=O)Nc3ccc4c(ccn4C)c3)CC2)cc1`, for which the EC50 in [2] (read-out: EC50) was found to be 600 nM.

`COc1ccc(OCC2CN(C(=O)NCc3ccc4c(ccn4C)c3)C2)cc1`: the EC50 in [2] (read-out: EC50) was 60 nM.

For `Cc1ccc(Oc2ccc(C(=O)NCc3ccc4c(ccn4C)c3)cc2)cc1`, the concentration giving a half-maximal response (EC50) in [2] (read-out: EC50) turned out to be 40 nM.

`Cn1ccc2cc(CNC(=O)N3CC(COc4ccc(F)cc4)C3)ccc21`: the half-maximal effective concentration (EC50) in [2] (read-out: EC50) was 220 nM.

On to `COCC(C(=O)Nc1ccc2c(ccn2C)c1)N1CCC(Oc2ccc(C)cc2)CC1` (stereo unspecified), for which the EC50 result in [2] (flp-in-293) is given as “Not Active”.

`Cc1ccc(CN2CCN(C(=O)C(=O)Nc3cc4ccn(C)c4cc3F)CC2)cc1`: the Activity entry in [6], in data set [7], in [8], in [9], in [10] and in [11] was “Toxic” in each case. For the same compound, the Activity entry in data set [12], in data set [13], in data set [14] and in data set [15] was “Toxic” in each case. The solubility kinetic in [1] stood at 47.1 µM (≈ 19.2 µg/mL). The EC50 in [2] (read-out: EC50) worked out at 900 nM.

With `Cc1ccc(OC2CCN(C(=O)NCc3ccc4c(ccn4C)c3)CC2)cc1`, the EC50 in [2] (read-out: EC50) was determined as 210 nM.

As to `Cc1ccc(OCC2CCN(C(=O)NCc3ccc4c(ccn4C)c3)C2)cc1` (stereo unspecified), the EC50 in data set [2] (read-out: EC50) was 280 nM.

In the case of `Cn1ccc2cc(CNC(=O)N3CC(COc4ccccc4)C3)ccc21`, in data set [2] (read-out: EC50), the EC50 is 180 nM.

For the compound `Cc1ccc(CC2CCN(C(=O)C(=O)Nc3ccc4[nH]ccc4c3)CC2)cc1`, the EC50 in [2] (read-out: EC50) worked out at 910 nM.

`Cc1ccc(CC2CCN(C(=O)C(=O)Nc3ccc4[nH]c(C)cc4c3)CC2)cc1`: the EC50 entry in data set [2] (flp-in-293) was “Not Active”.

As to `Cc1ccc(CN2CCN(C(=O)C(=O)Nc3ccc4c(c3)c(Cl)cn4C)CC2)cc1`, the Activity entry in data set [6], in [7], in [8], in data set [9], in data set [10] and in [11] was “Toxic” each time. Further, the Activity entry in data set [12], in data set [13], in data set [14] and in [15] was “Toxic” throughout. Further, the solubility kinetic in [1] came out at 6.8 µM (≈ 2.89 µg/mL). In addition, the EC50 in data set [2] (read-out: EC50) amounted to 420 nM.

With `Cc1ccc(CN2CCN(C(=O)C(=O)Nc3cnc4c(c3)c(F)cn4C)CC2)cc1`, in data set [2] (read-out: EC50), the EC50 turned out to be 210 nM. The microsomal CLint at 1 µM in data set [3] is 12 µL/min/mg; in [4] it was 41 µL/min/mg; in [5] it was 39 µL/min/mg.

Take `Cc1ccc(OC2CN(C(=O)NCc3ccc4c(ccn4C)c3)C2)cc1`: the EC50 in data set [2] (read-out: EC50) amounted to 620 nM.

`Cc1ccc(CN2CCN(C(=O)C(=O)Nc3cnc4c(ccn4C)c3)CC2)cc1`: the solubility kinetic in data set [1] amounted to 47.4 µM (≈ 18.6 µg/mL). Further, the concentration giving a half-maximal response (EC50) in data set [2] (read-out: EC50) was 400 nM. For the same compound, the microsomal CLint at 1 µM is 0.3 µL/min/mg in data set [3], 56 µL/min/mg in [4] and 46 µL/min/mg in [5].

As for `Cn1ccc2cc(CNC(=O)N3CC(COc4ccc(C#N)cc4)C3)ccc21`, the EC50 in [2] (read-out: EC50) was determined as 350 nM.

With `Cn1ccc2cc(CNC(=O)N3CC(COc4ccc(OC(F)(F)F)cc4)C3)ccc21`, in [2] (read-out: EC50), the EC50 turned out to be 25 nM.

As for `Cc1ccc(O[C@H]2CC[C@H](C(=O)C(=O)Nc3ccc4c(ccn4C)c3)CC2)cn1`, the EC50 in data set [2] (read-out: EC50) was found to be 670 nM.

By EC50 is commonly meant the concentration that produces a half-maximal response.
